Reference: patent US8501446B2 (Vertex Pharmaceuticals Incorporated, priority 2004, dated 2013)

Columns and labels:
Type in all cases: biochemical
[1] = molecular target: T1, JAK3 (Homo sapiens, UniProt P52333); assay: JAK3 inhibition assay (standard radioactive enzyme assay); conditions: average Ki if more than one value determined
T1 sequence (P52333 1-1124): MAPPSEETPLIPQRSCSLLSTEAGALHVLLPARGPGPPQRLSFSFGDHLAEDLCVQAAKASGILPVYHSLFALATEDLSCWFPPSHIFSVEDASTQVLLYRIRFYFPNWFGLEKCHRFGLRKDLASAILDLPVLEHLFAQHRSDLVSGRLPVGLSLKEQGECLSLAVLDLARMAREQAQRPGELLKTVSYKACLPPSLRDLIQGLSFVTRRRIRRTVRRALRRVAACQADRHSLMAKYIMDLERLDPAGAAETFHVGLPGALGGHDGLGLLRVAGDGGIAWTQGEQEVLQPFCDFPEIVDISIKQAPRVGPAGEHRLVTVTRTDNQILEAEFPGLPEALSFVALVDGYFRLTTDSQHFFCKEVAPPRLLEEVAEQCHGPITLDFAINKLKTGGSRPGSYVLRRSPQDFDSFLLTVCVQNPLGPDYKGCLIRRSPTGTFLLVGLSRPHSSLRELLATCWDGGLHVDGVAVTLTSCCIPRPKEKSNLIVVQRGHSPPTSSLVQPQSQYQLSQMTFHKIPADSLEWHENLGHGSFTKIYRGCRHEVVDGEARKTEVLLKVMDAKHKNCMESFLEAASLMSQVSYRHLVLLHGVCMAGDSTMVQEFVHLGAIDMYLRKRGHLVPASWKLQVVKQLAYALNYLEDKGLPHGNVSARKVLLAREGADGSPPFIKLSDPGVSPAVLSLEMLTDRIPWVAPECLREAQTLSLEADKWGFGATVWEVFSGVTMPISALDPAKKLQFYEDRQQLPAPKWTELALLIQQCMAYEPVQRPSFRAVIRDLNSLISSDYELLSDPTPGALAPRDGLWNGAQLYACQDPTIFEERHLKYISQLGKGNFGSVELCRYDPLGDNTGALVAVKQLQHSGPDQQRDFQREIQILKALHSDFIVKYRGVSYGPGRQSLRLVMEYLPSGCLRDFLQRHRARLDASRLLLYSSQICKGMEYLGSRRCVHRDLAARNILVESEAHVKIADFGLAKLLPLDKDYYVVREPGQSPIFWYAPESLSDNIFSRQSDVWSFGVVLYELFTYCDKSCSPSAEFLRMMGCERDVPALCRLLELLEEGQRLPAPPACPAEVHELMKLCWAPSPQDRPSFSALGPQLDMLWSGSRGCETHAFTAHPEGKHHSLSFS
Method: (§1) Compounds were screened for their ability to inhibit JAK3 using a standard radioactive enzyme assay. 1.5 μL/well of a DMSO stock containing serial dilutions of a compound of the present invention (concentrations ranging from 667 μM to 46 nM) was placed in a 96 well polycarbonate plate. 50 μL per well of kinase buffer (100 mM HEPES (pH 7.4), 10 mM MgCl2, 25 mM NaCl, 1 mM DTT, and 0.01% bovine serum albumin (BSA)) containing 2 μM poly(Glu)4Tyr and 10 μM ATP was also added to the plate. To initiate the reaction, 50 μL kinase buffer containing 2 nM JAK3 enzyme was added. Final ATP concentration was 5 μM [γ-^33P] ATP (200 μCi ^33P ATP/μmol ATP (Perkin Elmer, Cambridge, Mass.). After 20 minutes at room temperature (25° C.), the reaction was stopped by adding 50 μL 20% trichloroacetic acid (TCA)/0.4 mM ATP to each well. The entire content of each well was then transferred to a 96 well glass fiber filter plate using a TomTek Cell Harvester. After washing, 60 μL scintillation fluid was added and ^33P incorporation detected using a Perkin Elmer TopCount. After removing mean background values for all of the data points the data was fit using Prism software to obtain a Ki(app). Inhibition of JAK2 was measured as above except that final poly(Glu)4Tyr concentration was 15 μM and final ATP concentration was 12 μM.

[2] = molecular target: JAK2 (Homo sapiens, UniProt O60674); assay: JAK2 inhibition assay (radioactive enzyme assay, as for JAK3); conditions: average Ki if more than one value determined
Method: as §1

[3] = molecular target: T2, ROCK I (AA 6-553) (Homo sapiens, UniProt Q13464); assay: ROCK inhibition assay, standard coupled enzyme system ("Enzyme"); conditions: enzyme-linked assay
T2 construct: ROCK I (AA 6-553)
Summary of the method: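 ROCK I (AA 6-553) at 45 nM and 30 °C with 45 μM ATP and 200 μM peptide, in 100 mM HEPES pH 7.5, 10 mM MgCl2, 25 mM NaCl, 2 mM DTT, 1.5% DMSO. ADP output read by a PK/LDH coupled system: 2.5 mM PEP, 350 μM NADH, 30 μg/ml PK, 10 μg/ml LDH.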

Chain of JAK2 (O60674 whole entry, species assumed): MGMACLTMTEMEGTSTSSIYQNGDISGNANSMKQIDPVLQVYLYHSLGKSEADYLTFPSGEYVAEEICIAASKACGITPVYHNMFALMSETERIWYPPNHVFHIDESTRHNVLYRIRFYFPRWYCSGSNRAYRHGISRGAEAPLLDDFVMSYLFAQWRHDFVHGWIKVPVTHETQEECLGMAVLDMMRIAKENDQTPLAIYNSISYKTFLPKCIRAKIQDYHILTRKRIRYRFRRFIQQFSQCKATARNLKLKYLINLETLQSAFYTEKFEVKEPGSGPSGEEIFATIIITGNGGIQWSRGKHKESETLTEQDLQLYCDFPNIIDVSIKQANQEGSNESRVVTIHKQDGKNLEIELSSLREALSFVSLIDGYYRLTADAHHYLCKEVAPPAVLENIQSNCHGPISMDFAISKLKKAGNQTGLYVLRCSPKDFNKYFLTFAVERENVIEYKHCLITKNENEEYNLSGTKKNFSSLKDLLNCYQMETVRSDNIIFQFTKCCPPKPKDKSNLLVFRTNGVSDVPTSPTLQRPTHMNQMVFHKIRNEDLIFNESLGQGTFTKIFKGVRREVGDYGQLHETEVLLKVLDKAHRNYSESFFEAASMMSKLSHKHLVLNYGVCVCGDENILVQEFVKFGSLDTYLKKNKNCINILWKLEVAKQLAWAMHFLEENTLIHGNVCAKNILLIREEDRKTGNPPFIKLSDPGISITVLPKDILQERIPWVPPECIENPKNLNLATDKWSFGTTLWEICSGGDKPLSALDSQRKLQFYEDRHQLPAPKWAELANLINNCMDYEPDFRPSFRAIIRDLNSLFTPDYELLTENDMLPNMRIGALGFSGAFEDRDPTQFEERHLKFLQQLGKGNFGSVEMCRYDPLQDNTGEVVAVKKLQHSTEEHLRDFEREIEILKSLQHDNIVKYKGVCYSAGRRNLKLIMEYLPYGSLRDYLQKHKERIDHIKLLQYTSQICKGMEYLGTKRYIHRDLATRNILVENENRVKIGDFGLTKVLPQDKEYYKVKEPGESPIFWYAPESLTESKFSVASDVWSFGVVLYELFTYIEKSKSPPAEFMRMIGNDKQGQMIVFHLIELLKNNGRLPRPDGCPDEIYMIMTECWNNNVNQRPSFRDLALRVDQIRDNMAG
T2 sequence (Q13464 6-553, species assumed): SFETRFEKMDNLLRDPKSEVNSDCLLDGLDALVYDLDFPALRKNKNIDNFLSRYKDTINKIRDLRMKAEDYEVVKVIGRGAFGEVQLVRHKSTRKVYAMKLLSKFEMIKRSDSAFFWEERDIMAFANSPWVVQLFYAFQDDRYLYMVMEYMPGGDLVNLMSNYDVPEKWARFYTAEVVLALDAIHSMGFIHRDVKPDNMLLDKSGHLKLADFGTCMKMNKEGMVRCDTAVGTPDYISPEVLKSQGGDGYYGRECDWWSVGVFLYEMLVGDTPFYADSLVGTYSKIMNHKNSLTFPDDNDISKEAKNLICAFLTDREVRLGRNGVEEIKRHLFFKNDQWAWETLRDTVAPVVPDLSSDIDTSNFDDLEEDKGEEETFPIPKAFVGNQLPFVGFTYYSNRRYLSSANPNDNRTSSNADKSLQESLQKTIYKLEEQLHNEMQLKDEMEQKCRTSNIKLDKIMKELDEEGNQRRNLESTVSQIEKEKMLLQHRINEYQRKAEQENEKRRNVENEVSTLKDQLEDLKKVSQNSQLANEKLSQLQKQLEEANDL

A Ki [1] of 500 to 5000 nM, a Ki [2] of 500 to 5000 nM and a Ki [3] of 500 to 5000 nM were found for O=C(Nc1cccc(-c2c[nH]c3ncc(Cl)cc23)n1)OCc1ccccc1 [Compound 91] in this work.
A Ki [1] of 500 to 5000 nM, a Ki [2] of 500 to 5000 nM and a Ki [3] of 500 to 5000 nM were found for CC(=O)N1[C@H](C)CN(c2cccc(-c3c[nH]c4ncc(OCCN(C)C)cc34)n2)C[C@@H]1C [Compound 94] in this work.
With O=C(O)c1ccc(-c2c[nH]c3ncc(Cl)cc23)cc1 [Compound 104] the Ki [1] was < 500 nM, the Ki [2] was < 500 nM and the Ki [3] was 500 to 5000 nM.
NC(=O)c1ccc(-c2c[nH]c3ncc(Cl)cc23)cc1 [Compound 105] was tested, and the Ki [1] was < 500 nM, the Ki [2] was < 500 nM and the Ki [3] was 500 to 5000 nM.
For O=C(O)c1ccc(-c2c[nH]c3ncc(Cl)cc23)nc1 [Compound 106], the Ki [1] was < 500 nM, the Ki [2] was < 500 nM and the Ki [3] was 500 to 5000 nM.
In the case of NC(=O)c1ccc(-c2c[nH]c3ncc(Cl)cc23)nc1 [Compound 107], the Ki [1] is reported as < 500 nM, the Ki [2] is reported as < 500 nM and the Ki [3] is reported as 500 to 5000 nM.
With CC(=O)N1[C@H](C)CN(c2cccc(-c3c[nH]c4ncc(C(=O)NCCN5CCOCC5)cc34)n2)C[C@@H]1C [Compound 108] the Ki [1] was < 500 nM, the Ki [2] was < 500 nM and the Ki [3] was 500 to 5000 nM.
CC(=O)N1[C@H](C)CN(c2cccc(-c3c[nH]c4ncc(C(=O)NCCCN5CCN(C)CC5)cc34)n2)C[C@@H]1C [Compound 109] was tested, and the Ki [1] was < 500 nM, the Ki [2] was < 500 nM and the Ki [3] was 500 to 5000 nM.
CC(=O)N1[C@H](C)CN(c2cc(-c3nnn[nH]3)cc(-c3c[nH]c4ncc(Cl)cc34)n2)C[C@@H]1C [Compound 111] was tested, and the Ki [1] was < 500 nM, the Ki [2] was < 500 nM and the Ki [3] was 500 to 5000 nM.
COc1cnc2[nH]cc(-c3cccc(N4CCCN(C(C)=O)CC4)n3)c2c1 [Compound 112] was tested, and the Ki [1] was < 500 nM, the Ki [2] was < 500 nM and the Ki [3] was 500 to 5000 nM.
For CC(=O)N1[C@H](C)CN(c2cccc(-c3c[nH]c4ncc(NC(=O)CN5CCNCC5)cc34)n2)C[C@@H]1C [Compound 115], the Ki [1] was < 500 nM, the Ki [2] was < 500 nM and the Ki [3] was 500 to 5000 nM.
With CC(=O)N1[C@H](C)CN(c2cccc(-c3c[nH]c4ncc(NC(=O)CN5CCOCC5)cc34)n2)C[C@@H]1C [Compound 116] the Ki [1] was < 500 nM, the Ki [2] was < 500 nM and the Ki [3] was 500 to 5000 nM.
In the case of CC(=O)N1CCCN(c2cccc(-c3c[nH]c4ncc(C(=O)O)cc34)n2)CC1 [Compound 126], the Ki [1] is reported as 500 to 5000 nM, the Ki [2] is reported as > 5000 nM and the Ki [3] is reported as 500 to 5000 nM.
With CC(=O)N1[C@H](C)CN(c2cccc(-c3c[nH]c4ncc(NC(=O)N5CCOCC5)cc34)n2)C[C@@H]1C [Compound 127] the Ki [1] was < 500 nM, the Ki [2] was < 500 nM and the Ki [3] was 500 to 5000 nM.
With C[C@@H](Nc1cccc(-c2c[nH]c3ncc(Cl)cc23)n1)C1CCCCC1 [Compound 129] the Ki [1] was < 500 nM, the Ki [2] was 500 to 5000 nM and the Ki [3] was 500 to 5000 nM.
Clc1cnc2[nH]cc(-c3cccc(NC4CCc5ccccc54)n3)c2c1 (stereo not shown) [Compound 133] was tested, and the Ki [1] was < 500 nM, the Ki [2] was < 500 nM and the Ki [3] was 500 to 5000 nM.
In the case of CC(C)[C@@H](CO)Nc1cccc(-c2c[nH]c3ncc(Cl)cc23)n1 [Compound 134], the Ki [1] is reported as < 500 nM, the Ki [2] is reported as < 500 nM and the Ki [3] is reported as 500 to 5000 nM.
With CC(C)[C@H](CO)Nc1cccc(-c2c[nH]c3ncc(Cl)cc23)n1 [Compound 135] the Ki [1] was < 500 nM, the Ki [2] was < 500 nM and the Ki [3] was < 500 nM.
For FC(F)(F)c1cc(NCc2ccccc2)cc(-c2c[nH]c3ncc(Cl)cc23)c1 [Compound 187], the Ki [1] was < 500 nM and the Ki [2] was 500 to 5000 nM.
With O=C(O)c1ccc(-c2c[nH]c3ncc(Cl)cc23)c(F)c1 [Compound 188] the Ki [1] was 500 to 5000 nM and the Ki [2] was > 5000 nM.
